In US9890185B2, “Urea derivatives useful as kinase inhibitors” (Respivert Limited, priority 2013, dated 2018):

Assays:
[1] = molecular target: p38 MAPKα isoform (MAPK14) (Homo sapiens (Human), UniProt Q16539); experiment: p38 MAPKα enzyme inhibition (FRET, Z-LYTE, Method 2); type: biochemical
Summary of the method: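 Z-LYTE FRET: p38 MAPKα (80 ng/mL for Method 1, 200 ng/mL for Method 2, pre-dilution) preincubated 2 hr RT with compound (4–0.004 μg/mL solutions), activity read via MAPKAP-K2 phosphorylation after 1 hr RT and 1 hr protease development. Coumarin/fluorescein ratio gives phosphorylation; % inhibition versus uninhibited control, IC50 from concentration-response curve.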

GSK 3α = GSK 3α (Homo sapiens (Human), UniProt P49840); experiment: GSK 3α enzyme inhibition (FRET, Z-LYTE, Method 2); type: biochemical; conditions: read-out: IC50 Values for Enzyme Inhibition, GSK3α
GSK 3α, sequence (P49840 whole entry): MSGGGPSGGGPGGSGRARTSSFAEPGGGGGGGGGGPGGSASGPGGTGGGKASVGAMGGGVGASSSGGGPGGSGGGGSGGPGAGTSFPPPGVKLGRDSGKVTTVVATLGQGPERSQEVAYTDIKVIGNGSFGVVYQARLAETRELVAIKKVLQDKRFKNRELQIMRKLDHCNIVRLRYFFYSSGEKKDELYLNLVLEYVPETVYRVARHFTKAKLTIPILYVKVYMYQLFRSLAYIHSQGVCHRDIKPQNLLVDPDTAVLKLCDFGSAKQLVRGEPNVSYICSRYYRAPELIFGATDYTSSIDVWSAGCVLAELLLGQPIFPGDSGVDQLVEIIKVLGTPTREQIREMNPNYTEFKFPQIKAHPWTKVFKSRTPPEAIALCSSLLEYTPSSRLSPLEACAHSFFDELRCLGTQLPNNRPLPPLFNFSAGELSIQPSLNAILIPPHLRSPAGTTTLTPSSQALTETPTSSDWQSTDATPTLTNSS
Summary of the method: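 Phosphorylation of a dual-labelled synthetic peptide by human GSK3α is read as a coumarin/fluorescein ratio after protease development. Compound stocks run 4 to 0.004 μg/mL, and ATP stock is 40 μM.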

PBMCs [2] = experiment: LPS-induced IL-8 release in PBMC cells (assay b); type: cell-based, human; conditions: Homo sapiens, PBMC; LPS-stimulated PBMCs; read-out: IC50 Values for Inhibition of Cytokine Release, PBMCs IL-8
Summary of the method: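 Cytokines (TNFα, IL-8) in supernatants were quantified by sandwich ELISA after a 24 h challenge with 1 ng/mL E. coli LPS at 37° C, 5% CO2. Healthy-donor PBMCs had been exposed to compound for 2 h beforehand. IC50 values were fitted from the concentration-response curves.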

PBMCs [3] = experiment: IFN gamma release in CD3/CD28 stimulated PBMC cells (assay c); type: cell-based; conditions: Homo sapiens, read-out: IC50 Values for Inhibition of Cytokine Release, PBMCs IFNγ
Summary of the method: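 Sandwich ELISA of supernatant IL-2 and IFN gamma; IC50 from dose-response curve. Cells: density-gradient PBMCs from healthy subjects on plate-bound anti-CD3 0.3 μg/mL + anti-CD28 3 μg/mL, compound added, 3 d culture.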

d-U937 cells = experiment: Accumulation of β catenin in d-U937 cells (assay m); type: cell-based, human; conditions: percentage relative to Reference Compound at 1 μg/mL
Summary of the method: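 Read-out: colourimetric cell-based immunoassay for endogenous β-catenin (OD450 minus 655 reference), normalised to crystal violet absorbance at 595 nm. Test compound or vehicle was applied for 18 hr to U937 monocytes first differentiated with PMA (100 ng/mL) for 48–72 hr.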

p38 MAPKα isoform (MAPK14), sequence (Q16539 whole entry, canonical isoform): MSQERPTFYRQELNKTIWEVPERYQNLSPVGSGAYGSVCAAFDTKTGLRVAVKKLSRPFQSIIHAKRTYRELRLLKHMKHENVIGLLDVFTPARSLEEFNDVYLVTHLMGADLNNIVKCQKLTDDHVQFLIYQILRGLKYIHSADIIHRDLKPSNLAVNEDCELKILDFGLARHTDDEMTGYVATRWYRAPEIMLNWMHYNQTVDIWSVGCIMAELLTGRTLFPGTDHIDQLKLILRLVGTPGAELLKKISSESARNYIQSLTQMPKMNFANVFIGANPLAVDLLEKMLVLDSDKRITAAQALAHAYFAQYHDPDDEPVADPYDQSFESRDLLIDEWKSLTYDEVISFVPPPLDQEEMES

| Structure (SMILES) | IC50 [1] [nM] | IC50 (GSK 3α) [nM] | IC50 (PBMCs [2]) [nM] | IC50 (PBMCs [3]) [nM] | % β-catenin induction (d-U937 cells; test compound 1 μg/mL) [%] | % β-catenin induction (d-U937 cells; test compound 5 μg/mL) [%] | % β-catenin induction (d-U937 cells; test compound 10 μg/mL) [%] |
| --- | --- | --- | --- | --- | --- | --- | --- |
| COCCOCCOCCOc1cc(Nc2nccc(Oc3ccc(NC(=O)Nc4cc(C(C)(C)C)cc(OCP(C)(C)=O)c4OC)c4ccccc34)n2)cc(OC)c1 [Example 6, 1-(5-(tert-Butyl)-3-((dimethylphosphoryl)methoxy)-2-methoxyphenyl)-3-(4-((2-((3-methoxy-5-(2-(2-(2-methoxyethoxy)ethoxy)ethoxy)phenyl)amino)pyrimidin-4-yl)oxy)naphthalen-1-yl)urea] | 211 | 1200 | 1.9 | 15.5 | 1.0 | 29.0 | 65.0 |
| COCCOCCOCCOc1cc(Nc2nccc(Oc3ccc(NC(=O)Nc4cc(C(C)(C)C)cc(C(=O)NCCN5CCOCC5)c4OC)c4ccccc34)n2)cc(OC)c1 [Example 8, 5-(tert-Butyl)-2-methoxy-3-(3-(4-((2-((3-methoxy-5-(2-(2-(2-methoxyethoxy)ethoxy)-ethoxy)phenyl)amino)pyrimidin-4-yl)oxy)naphthalen-1-yl)ureido)-N-(2-morpholinoethyl)-benzamide] | 188 | 788 | 1.3 | 2.2 | 2.5 | 22.5 | 26.5 |
| COCCOCCOCCOc1cc(Nc2cc(Oc3ccc(NC(=O)Nc4cc(C(C)(C)C)cc(S(C)(=O)=O)c4OC)c4ccccc34)ccn2)cc(OC)c1 [Example 9, 1-(5-(tert-Butyl)-2-methoxy-3-(methylsulfonyl)phenyl)-3-(4-((2-((3-methoxy-5-(2-(2-(2-methoxyethoxy)ethoxy)ethoxy)phenyl)amino)pyridin-4-yl)oxy)naphthalen-1-yl)urea] | 290 | > 10700 | 3.5 | 9.4 | 4.5 | 5.5 | 0.0 |
| COc1c(NC(=O)Nc2ccc(Oc3ccnc(Nc4ccccc4)c3)c3ccccc23)cc(C(C)(C)C)cc1P(C)(C)=O [Example 11, 1-(5-(tert-Butyl)-3-(dimethylphosphoryl)-2-methoxyphenyl)-3-(4-((2-(phenylamino)pyridin-4-yl)oxy)naphthalen-1-yl)urea] | 141 | 3830 | 2.3 | 10.5 | 5.0 | 19.7 | 27.3 |
| COc1c(CC(N)=O)cc(C(C)(C)C)cc1NC(=O)Nc1ccc(Oc2ccnc(Nc3ccccc3)c2)c2ccccc12 [Example 13, 2-(5-(tert-Butyl)-2-methoxy-3-(3-(4-((2-(phenylamino)pyridin-4-yl)oxy)naphthalen-1-yl)ureido)phenyl)acetamide] | 108 | 7580 | 6.4 | 50.4 | −4.0 | 6.5 | 9.5 |
| COc1c(NC(=O)Nc2ccc(Oc3ccnc(Nc4ccccc4)c3)c3ccccc23)cc(C(C)(C)C)cc1C(=O)NCCN1CCOCC1 [Example 14, 5-(tert-Butyl)-2-methoxy-N-(2-morpholinoethyl)-3-(3-(4-((2-(phenylamino)pyridin-4-yl)oxy)naphthalen-1-yl)ureido)benzamide] | 392 | > 10100 | 3.3 | 16.3 | −0.5 | 22.0 | 25.5 |
| COCCOCCOCCOc1cc(Nc2cc(Oc3ccc(NC(=O)Nc4cc(C(C)(C)C)cc(C(=O)NCCN5CCOCC5)c4OC)c4ccccc34)ccn2)cc(OC)c1 [Example 16, 5-(tert-Butyl)-2-methoxy-3-(3-(4-((2-((3-methoxy-5-(2-(2-(2-methoxyethoxy)ethoxy)ethoxy)-phenyl)amino)pyridin-4-yl)oxy)naphthalen-1-yl)ureido)-N-(2-morpholinoethyl)benzamide] | 230 | 5670 | 1.7 | 4.3 | 0.0 | −3.0 | −6.5 |
| COc1c(CS(C)(=O)=O)cc(C(C)(C)C)cc1NC(=O)Nc1ccc(Oc2ccnc(Nc3ccccc3)c2)c2ccccc12 [Example 19, 1-(5-(tert-Butyl)-2-methoxy-3-((methylsulfonyl)methyl)phenyl)-3-(4-((2-(phenylamino)pyridin-4-yl)oxy)naphthalen-1-yl)urea] | 208 | > 16000 | 6.2 | 26.8 | 2.5 | 9.0 | 13.0 |
| COc1cc(Nc2nccc(Oc3ccc(NC(=O)Nc4cc(C(C)(C)C)cc(OCP(C)(C)=O)c4OC)c4ccccc34)n2)cc(OC)c1 [Example 20, 1-(5-(tert-Butyl)-3-((dimethylphosphoryl)methoxy)-2-methoxyphenyl)-3-(4-((2-((3,5-dimethoxyphenyl)amino)pyrimidin-4-yl)oxy)naphthalen-1-yl)urea] | 368 | 2060 | 2.5 | 7.9 | 2.5 | 20.5 | 16.5 |

The next compounds have a lower IC50 [1] than those just listed; values first:

| IC50 [1] [nM] | IC50 (GSK 3α) [nM] | Structure (SMILES) | IC50 (PBMCs [2]) [nM] | IC50 (PBMCs [3]) [nM] | % β-catenin induction (d-U937 cells; test compound 1 μg/mL) [%] | % β-catenin induction (d-U937 cells; test compound 5 μg/mL) [%] | % β-catenin induction (d-U937 cells; test compound 10 μg/mL) [%] |
| --- | --- | --- | --- | --- | --- | --- | --- |
| 6 | 1500 | COc1c(CNC(C)=O)cc(C(C)(C)C)cc1NC(=O)Nc1ccc(Oc2ccnc(NCc3ccccn3)c2)c2ccccc12 [38(q), N-(5-(tert-Butyl)-2-methoxy-3-(3-(4-((2-((pyridin-2-ylmethyl)amino)pyridin-4-yl)oxy)naphthalen-1-yl)ureido)benzyl)acetamide] | 1.4 | 26.1 | 11.5 | 41.5 | 57.5 |
| 51 | 2820 | COCCOCCOCCOc1cc(Nc2cc(Oc3ccc(NC(=O)Nc4cc(C(C)(C)C)cc(P(C)(C)=O)c4OC)c4ccccc34)ccn2)cc(OC)c1 [Example 2, 1-(5-(tert-Butyl)-3-(dimethylphosphoryl)-2-methoxyphenyl)-3-(4-((2-((3-methoxy-5-(2-(2-(2-methoxyethoxy)ethoxy)ethoxy)phenyl)amino)pyridin-4-yl)oxy)naphthalen-1-yl)urea] | 1 | 2.9 | 4.0 | 32.5 | 31.5 |
| 91 | 4900 | C#Cc1cc(Nc2cc(Oc3ccc(NC(=O)Nc4cc(C(C)(C)C)cc(P(C)(C)=O)c4OC)c4ccccc34)ccn2)cc(C(=O)NCCOCCOCCOC)c1 [Example 3, 3-((4-((4-(3-(5-(tert-Butyl)-3-(dimethylphosphoryl)-2-methoxyphenyl)ureido)naphthalen-1-yl)oxy)pyridin-2-yl)amino)-5-ethynyl-N-(2-(2-(2-methoxyethoxy)ethoxy)ethyl)benzamide] | 2.8 | 18.4 | 5.7 | 9.7 | 7.3 |
| 45 | > 8340 | COCCOCCOCCOc1cc(Nc2cc(Oc3ccc(NC(=O)Nc4cc(C(C)(C)C)cc(P(C)(C)=O)c4)c4ccccc34)ccn2)cc(OC)c1 [Example 10, 1-(3-(tert-Butyl)-5-(dimethylphosphoryl)phenyl)-3-(4-((2-((3-methoxy-5-(2-(2-(2-methoxy-ethoxy)ethoxy)ethoxy)phenyl)amino)pyridin-4-yl)oxy)naphthalen-1-yl)urea] | 2 | 31.3 | −2.5 | −6.0 | −4.0 |
| 68 | 10300 | COCCOCCOCCOc1cc(Nc2cc(Oc3ccc(NC(=O)Nc4cc(C(C)(C)C)cc([S+](C)[O-])c4OC)c4ccccc34)ccn2)cc(OC)c1 (centres unmarked) [Example 17, 1-(5-(tert-Butyl)-2-methoxy-3-(methylsulfinyl)phenyl)-3-(4-((2-((3-methoxy-5-(2-(2-(2-methoxyethoxy)ethoxy)ethoxy)phenyl)amino)pyridin-4-yl)oxy)naphthalen-1-yl)urea] | 0.9 | 4.9 | −2.0 | −7.0 | −5.5 |
